Assays:
[1] = Blood-brain and blood-spinal cord barrier penetration after IP administration; type: in vivo; settings: uninjured mouse, IP 60 mg/kg, 1 hour, intrinsic fluorescence
Description: FIG. 6: 5c(i) penetrates the blood-brain and -spinal cord barriers. 4-month-old uninjured female mouse was IP administered 60 mg/kg 5c(i). The mouse was euthanized 1 hour after 5c(i) administration and perfused with PFA. The spinal cord was dissected and sectioned sagittal at 25 μm and stained with NeuN and DAPI. The brain was dissected and sectioned coronal at 50 μm and stained with GFAP and DAPI. 5c(i) was identified through its intrinsic fluorescence. Scale bar=100 μm.
This is highly significant as most drugs cannot penetrate the central nervous system (CNS), resulting in very costly late-stage failures in CNS drug development^94. 5c(i) therefore in specific embodiments can cross the BBB and target the brain, such as through IP administration, for indications relating to brain function, such as AD and stroke. 5c(i) has even higher potential for penetrating the CNS after SCI when permeability is increased^95-97.

[2] = system: severe T8 contusion/compression SCI; assay: Preclinical SCI model: Novel Object Recognition (NOR); type: in vivo, mouse; settings: 7 weeks post injury, 24-hr interval
Description: 8-week-old male mice with a severe T8 contusion/compression SCI were injected IP daily with 5c(i) for 7 weeks (5 and 25 mg/kg/day). 7 weeks post injury, NOR was conducted. 10A) The total number of independent visits to novel object. 10B) Latency to visit novel object. 10C) The ratio of time spent with objects (novel/familiar ratio). […] N=6-8. Graphs show mean and SEM. # (p<0.1) * (p<0.05) ** (p<0.01) *** (p<0.001) **** (p<0.0001). Student's T-test.
Male mice at 8 weeks of age underwent surgery to sustain an SCI. The spinalis thoracis muscle was lacerated to perform a laminectomy at T7-T9 to expose the spinal cord while keeping the dura intact. The mice were then clamped using 2 pairs of Adson forceps before using the Infinite Horizon Impactor at 50 kdyn of force (the contusion) with a 2 second dwell time (the compression) to induce a severe T8 contusion and compression. Self-degrading Catgut sutures were utilized for the closure of the spinalis thoracis muscle before the skin was glued shut with 3M VETBOND™ (n-butyl cyanoacrylate adhesive veterinary tissue adhesive) Tissue Adhesive. All procedures and instruments used for surgery were sterilized prior to surgery to prevent infections. After surgery, mice recovered in a warmed cage and then moved to a cage set at room temperature provided with food and water ad libitum. All surgeries were performed in the morning (8 am-12 pm) to limit potential circadian clock impact. Behavioral assays were performed at the same time in the morning for all the cohorts for the same reason. For the administration of pharmaceutical agents, the vehicle was 0.6 mL/kg of 100% dimethyl sulfoxide (DMSO). 5c(i) (at 5 and 25 mg/kg/day) diluted in vehicle or vehicle alone was administered once daily through intraperitoneal (IP) injections at a volume of 0.6 mL/kg/day. […]
7 weeks after SCI, all post injury cognitive testing was conducted. Novel Object Recognition (NOR): Mice were placed in the empty open field white box for 5 min and recorded. […] Behavioral patterns with respect to the novel and familiar objects was recorded and analyzed. […]

[3] = mouse, in vivo
Description: 8-week-old male mice with a severe T8 contusion/compression SCI were injected IP daily with 5c(i) for 7 weeks (5 and 25 mg/kg/day). […] 7 weeks post injury, heparinized plasma was collected and 12B) alanine aminotransferase (ALT), 12C) alkaline phosphatase (ALP), 12D) aspartate aminotransferase (AST), and 12E) blood urea nitrogen (BUN) levels were assessed. […] N=6-8. Graphs show mean and SEM. # (p<0.1) * (p<0.05) ** (p<0.01) *** (p<0.001) **** (p<0.0001). Student's T-test.
For the administration of pharmaceutical agents, the vehicle was 0.6 mL/kg of 100% dimethyl sulfoxide (DMSO). 5c(i) (at 5 and 25 mg/kg/day) diluted in vehicle or vehicle alone was administered once daily through intraperitoneal (IP) injections at a volume of 0.6 mL/kg/day.
Seven weeks after injury, histological analysis was performed on livers, and toxicology screens were conducted on plasma (FIG. 12).

TrkB = biological target: T1, TrkB (Homo sapiens, UniProt Q16620); assay: Cell-associated fluorescence saturation binding, TrkB-HEK293 cells; settings: 2.5 h, with and without 0.6 nM BDNF
T1 construct: expressed in transfected cells; host or cells: HEK293 (TrkB-HEK293)
Description: FIG. 2: 5c(i) binds to TrkB and TrkC receptors. Transfected cell lines that are Trk positive cells (TrkB-HEK293 and TrkC-NIH/3T3) and non-transfected cell lines that are Trk negative cells (HEK293 and NIH/3T3) were seeded approximately 2,000 cells/well in a 96-well plate and incubated for 24 hours. The cells were treated with a serial dilution of compound (0, 10, 25, 50, 100, 200, 500, and 1000 nM) in serum-free media (SFM) with and without A) 0.6 nM of BDNF (TrkB-HEK293 and HEK293) and B) 0.2 nM of NT-3 (TrkC-NIH/3T3 and NIH/3T3) for 2.5 h. After that, the cells were washed with PBS once to remove unbound compounds and dissolved in 1% (w/v) aqueous sodium dodecyl sulfate. Cell-associated fluorescence was then determined by measuring the emission of the resulting solution upon λex (540/25 nm) and λem (620/40 nm) using Agilent BioTek Synergy H4 Hybrid Microplate Reader. Kd was calculated by GraphPad Prism 9 using Binding saturation (One site—Specific binding).
Transfected cell lines that are Trk positive cells (TrkA-HeLa, TrkB-HEK293, and TrkC-NIH/3T3) and non-transfected cell lines that are Trk negative cells (HeLa, HEK293, and NIH/3T3) were seeded at 2,000 cells/well in a 96-well plate (0.32 cm^2 growth area) and incubated inside a 5% CO2 incubator at 37° C. for 24 hours. […] The dissociation constant (Kd) was calculated using binding saturation (One site—Specific binding).

Synapsin I = assay: Astrocyte Synapsin I staining (fluorescent intensity); type: cell-based, mouse; settings: astrocytes from 6-month-old male mice, 5 μM, 3 days
Description: FIGS. 4A-4D: 5c(i) induces Synapsin I production and reduces C3 and GSK-3s expression from astrocytes promoting neuron survival and neurite growth. Primary adult cortical astrocytes from 6-month-old male mice were incubated with 5 μM 5c(i) for 3 days. Graph represents mean±SEM of percent change in fluorescent intensity (Synapsin I and C3) or chemiluminescence (GSK-3β) relative to Vehicle (4A and 4D). Images represent the 4B) Vehicle and 4C) 5 μM 5c(i) treated groups stained with Synapsin I and DAPI. D) Cortical astrocytes from 6-month-old male mice were plated and treated with 5c(i) or Vehicle for 2 days. Cells were then washed and cortical neurons from 6-month-old male mice were added on top of the astrocytes. […] Scale bar=50 μm.
To determine if 5c(i) can modulate astrocytes, adult astrocytes from 6-month-old male mice were treated with 5c(i) for 3 days and stained with Synapsin I and C3 to measure changes in fluorescent intensity or western blot was conducted on the cell lysate to assess changes in GSK-3β expression (FIG. 4). […] To determine if 5c(i) treated astrocytes can directly benefit neuronal recovery, astrocytes were cultured with 5c(i) for 2 days before removing 5c(i) from the culture and plating adult neurons on top of the astrocytes for 2DIV, resulting in increased neuron survival and neurite growth. […]

T1 sequence (Q16620 32-822, species assumed): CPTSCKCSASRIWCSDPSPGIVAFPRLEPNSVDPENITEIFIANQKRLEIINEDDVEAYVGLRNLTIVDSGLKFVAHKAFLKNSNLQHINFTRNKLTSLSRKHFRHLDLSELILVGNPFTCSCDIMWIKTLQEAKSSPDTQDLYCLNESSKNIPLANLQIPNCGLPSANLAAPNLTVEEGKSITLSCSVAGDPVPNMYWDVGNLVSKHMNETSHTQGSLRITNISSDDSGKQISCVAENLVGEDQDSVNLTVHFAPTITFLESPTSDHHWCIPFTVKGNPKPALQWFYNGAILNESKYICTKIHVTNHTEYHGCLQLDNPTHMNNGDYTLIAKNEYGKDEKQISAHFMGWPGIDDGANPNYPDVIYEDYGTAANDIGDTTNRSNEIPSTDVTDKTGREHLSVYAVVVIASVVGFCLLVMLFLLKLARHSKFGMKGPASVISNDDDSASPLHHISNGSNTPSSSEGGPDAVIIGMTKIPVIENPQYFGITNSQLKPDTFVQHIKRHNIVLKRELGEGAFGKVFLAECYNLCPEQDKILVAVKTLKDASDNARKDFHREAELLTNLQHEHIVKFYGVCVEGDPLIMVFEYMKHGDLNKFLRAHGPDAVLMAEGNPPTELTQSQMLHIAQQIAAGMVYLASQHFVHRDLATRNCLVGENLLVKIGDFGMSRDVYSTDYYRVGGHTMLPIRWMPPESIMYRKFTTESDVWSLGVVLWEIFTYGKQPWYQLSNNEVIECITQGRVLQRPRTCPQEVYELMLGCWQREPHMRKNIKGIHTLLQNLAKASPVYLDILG

## C-DIRG-C BODIPY® (fluorescent dye) [5c(i)]
[1]
  penetration of blood-brain barrier (BBB): easily penetrate
  penetration of blood-spinal cord barrier (BSCB): easily penetrate
[2]
  latency to visit novel object: reduced latency to visit
  preference for the novel object: increased preference
  visits to novel object: more visits
[3]
  alanine aminotransferase (ALT): does not alter
  alkaline phosphatase (ALP): does not alter
  aspartate aminotransferase (AST): does not alter
  blood urea nitrogen (BUN): does not alter
TrkB
  affinity for TrkB (Kd): low nanomolar affinity
Synapsin I
  Synapsin I production: significant increase
